The source of these data is ChEMBL document CHEMBL5528073, “Design, Synthesis, and Biological Evaluation of Pierardine Derivatives as Novel Brain-Penetrant and In Vivo Potent NMDAR-GluN2B Antagonists for Ischemic Stroke Treatment” (J Med Chem, 2024).

Data set [1] deals with Glutamate receptor ionotropic, NMDA 2B (Rattus norvegicus, UniProt Q00960).
In data set [2] the target is Glutamate receptor ionotropic, NMDA 2B (Rattus norvegicus) (UniProt Q00960). Kind of data set: Antagonist activity at rat GluN2B NMDA receptor at 50 nM incubated for 120 mins by competitive binding assay relative to control. On the set-up: scale not given: the % may be the effect or the level left.
Glutamate receptor ionotropic, NMDA 2B (Rattus norvegicus), sequence (Q00960 27-1482 limits assumed): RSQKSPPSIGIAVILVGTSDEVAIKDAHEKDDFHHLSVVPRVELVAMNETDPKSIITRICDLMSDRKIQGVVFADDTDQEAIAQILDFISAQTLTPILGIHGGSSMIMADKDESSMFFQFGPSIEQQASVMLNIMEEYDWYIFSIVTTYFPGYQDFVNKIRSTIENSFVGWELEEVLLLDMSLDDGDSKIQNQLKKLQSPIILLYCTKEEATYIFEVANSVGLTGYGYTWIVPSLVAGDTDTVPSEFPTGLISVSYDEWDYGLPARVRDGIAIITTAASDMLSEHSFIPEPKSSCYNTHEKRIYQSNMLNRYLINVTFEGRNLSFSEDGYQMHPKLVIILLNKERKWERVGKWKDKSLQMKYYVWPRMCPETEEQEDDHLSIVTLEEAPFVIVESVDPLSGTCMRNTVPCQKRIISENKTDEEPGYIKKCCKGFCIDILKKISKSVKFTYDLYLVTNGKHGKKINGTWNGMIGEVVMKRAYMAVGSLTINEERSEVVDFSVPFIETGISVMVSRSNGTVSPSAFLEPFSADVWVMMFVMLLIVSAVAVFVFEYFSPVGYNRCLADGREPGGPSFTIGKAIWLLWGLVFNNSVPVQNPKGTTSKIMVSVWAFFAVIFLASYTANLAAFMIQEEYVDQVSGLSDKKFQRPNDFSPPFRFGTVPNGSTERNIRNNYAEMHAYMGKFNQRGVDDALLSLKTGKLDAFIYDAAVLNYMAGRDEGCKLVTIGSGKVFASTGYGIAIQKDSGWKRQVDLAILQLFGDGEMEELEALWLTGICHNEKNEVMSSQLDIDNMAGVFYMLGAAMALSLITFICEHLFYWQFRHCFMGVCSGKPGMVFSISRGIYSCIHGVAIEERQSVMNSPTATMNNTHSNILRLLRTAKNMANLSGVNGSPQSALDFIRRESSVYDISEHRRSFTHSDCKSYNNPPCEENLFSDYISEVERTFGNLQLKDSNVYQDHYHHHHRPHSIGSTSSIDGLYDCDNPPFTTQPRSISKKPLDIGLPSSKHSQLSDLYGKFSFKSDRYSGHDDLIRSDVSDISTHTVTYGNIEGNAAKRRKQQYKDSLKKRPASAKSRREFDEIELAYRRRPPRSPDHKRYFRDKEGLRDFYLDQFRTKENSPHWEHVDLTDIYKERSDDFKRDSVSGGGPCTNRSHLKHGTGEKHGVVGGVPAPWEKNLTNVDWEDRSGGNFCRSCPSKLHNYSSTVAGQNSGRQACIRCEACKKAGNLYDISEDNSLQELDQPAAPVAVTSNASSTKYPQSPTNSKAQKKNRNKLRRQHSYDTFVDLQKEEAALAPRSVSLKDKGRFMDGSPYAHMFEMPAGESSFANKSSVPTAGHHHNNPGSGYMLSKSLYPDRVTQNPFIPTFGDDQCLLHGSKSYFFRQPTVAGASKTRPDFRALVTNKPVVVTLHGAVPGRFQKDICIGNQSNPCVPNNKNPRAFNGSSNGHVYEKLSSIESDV
In data set [3] the target is Voltage-gated inwardly rectifying potassium channel KCNH2 (Homo sapiens, UniProt Q12809). Kind of data set: Inhibition of hERG expressed in HEK293 cells by whole-cell manual patch-clamp assay. The class given is toxicity, cell-based. (In general: hERG is a cardiac potassium channel; its block is linked to QT prolongation.)
The target in data set [4] is Glutamate NMDA receptor; GRIN1/GRIN2B (Homo sapiens, UniProt Q05586+Q13224).
Glutamate NMDA receptor; GRIN1/GRIN2B, sequence (Q13224 whole entry, other chains not shown): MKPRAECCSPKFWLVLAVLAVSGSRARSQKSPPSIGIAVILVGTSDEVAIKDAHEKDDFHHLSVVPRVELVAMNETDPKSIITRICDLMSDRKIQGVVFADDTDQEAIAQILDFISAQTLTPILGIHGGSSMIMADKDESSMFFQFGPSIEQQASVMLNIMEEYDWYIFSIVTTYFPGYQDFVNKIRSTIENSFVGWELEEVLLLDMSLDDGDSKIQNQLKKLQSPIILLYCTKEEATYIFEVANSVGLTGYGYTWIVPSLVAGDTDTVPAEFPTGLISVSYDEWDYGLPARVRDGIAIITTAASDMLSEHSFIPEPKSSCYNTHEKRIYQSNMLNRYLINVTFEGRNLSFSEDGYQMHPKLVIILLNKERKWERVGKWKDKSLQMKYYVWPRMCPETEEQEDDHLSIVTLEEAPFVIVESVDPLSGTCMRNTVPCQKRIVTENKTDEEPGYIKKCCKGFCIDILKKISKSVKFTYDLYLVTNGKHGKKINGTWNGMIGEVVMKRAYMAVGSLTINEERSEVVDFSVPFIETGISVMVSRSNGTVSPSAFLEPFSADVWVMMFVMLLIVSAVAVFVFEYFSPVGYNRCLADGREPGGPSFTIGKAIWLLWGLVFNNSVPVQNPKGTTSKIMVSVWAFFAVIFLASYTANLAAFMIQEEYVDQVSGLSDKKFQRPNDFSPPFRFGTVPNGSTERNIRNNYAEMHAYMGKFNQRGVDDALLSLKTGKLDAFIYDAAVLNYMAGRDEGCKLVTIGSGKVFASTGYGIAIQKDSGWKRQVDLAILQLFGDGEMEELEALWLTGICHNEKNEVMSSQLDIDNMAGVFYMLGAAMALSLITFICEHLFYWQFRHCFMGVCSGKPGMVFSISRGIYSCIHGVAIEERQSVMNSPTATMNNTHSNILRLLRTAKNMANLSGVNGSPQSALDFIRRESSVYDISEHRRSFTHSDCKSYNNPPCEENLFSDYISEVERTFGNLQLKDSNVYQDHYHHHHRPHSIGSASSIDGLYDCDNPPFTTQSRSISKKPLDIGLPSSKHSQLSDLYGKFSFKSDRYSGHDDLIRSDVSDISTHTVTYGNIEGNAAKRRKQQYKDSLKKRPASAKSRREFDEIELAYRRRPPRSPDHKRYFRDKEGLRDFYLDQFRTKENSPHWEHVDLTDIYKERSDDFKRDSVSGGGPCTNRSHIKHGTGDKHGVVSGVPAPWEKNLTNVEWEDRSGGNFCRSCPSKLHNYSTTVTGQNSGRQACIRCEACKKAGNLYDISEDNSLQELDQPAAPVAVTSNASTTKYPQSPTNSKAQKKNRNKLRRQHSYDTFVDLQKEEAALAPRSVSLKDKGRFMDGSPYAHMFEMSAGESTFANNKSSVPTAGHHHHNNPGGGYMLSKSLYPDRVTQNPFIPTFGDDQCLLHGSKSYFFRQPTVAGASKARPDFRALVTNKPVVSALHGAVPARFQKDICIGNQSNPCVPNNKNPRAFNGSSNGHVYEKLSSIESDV
Description: Antagonist activity at GluN1/GluN2B receptor (unknown origin) expressed in HEK293 cells assessed as inhibition of receptor-mediated current by patch clamp assay
Data set [5] in a line: Cytotoxicity against mouse primary neuron cells assessed as reduction in cell viability incubated for 48 hrs by CCK-8 assay.
Data set [6] can be described thus: Cytotoxicity against African green monkey Vero cells assessed as reduction in cell viability incubated for 48 hrs by CCK-8 assay. In general terms: Formazan colour is commonly taken as a measure of viable cells.
Data set [7] can be described thus: Cytotoxicity against mouse L929 cells assessed as reduction in cell viability incubated for 48 hrs by CCK-8 assay.
Data set [8] can be described thus: Cytotoxicity against HEK293 cells assessed as reduction in cell viability incubated for 48 hrs by CCK-8 assay. The settings on record: human.
Data set [9] in a line: Neuroprotective activity against NMDA-induced cell injury in rat Hippocampal neuron cells assessed as cell viability at 0.1 uM preincubated with compound for 6 hrs followed by NMDA-addition and measured after 0.5 hrs by MTT assay relative to control. The settings on record: Hippocampal neurone, 6.5 h, read-out: Activity.
Data set [10] in a line: Neuroprotective activity against NMDA-induced cell injury in rat Hippocampal neuron cells assessed as cell viability at 10 uM preincubated with compound for 6 hrs followed by NMDA-addition and measured after 0.5 hrs by MTT assay relative to control. Conditions: Hippocampal neurone, 6.5 h, read-out: Activity; call rule not given here.
A further data set can be described thus: cells. The settings on record: Rattus norvegicus, Hippocampal neurone, 6.5 h, read-out: Activity.

Glutamate receptor ionotropic, NMDA 2B, sequence (Q00960 whole entry): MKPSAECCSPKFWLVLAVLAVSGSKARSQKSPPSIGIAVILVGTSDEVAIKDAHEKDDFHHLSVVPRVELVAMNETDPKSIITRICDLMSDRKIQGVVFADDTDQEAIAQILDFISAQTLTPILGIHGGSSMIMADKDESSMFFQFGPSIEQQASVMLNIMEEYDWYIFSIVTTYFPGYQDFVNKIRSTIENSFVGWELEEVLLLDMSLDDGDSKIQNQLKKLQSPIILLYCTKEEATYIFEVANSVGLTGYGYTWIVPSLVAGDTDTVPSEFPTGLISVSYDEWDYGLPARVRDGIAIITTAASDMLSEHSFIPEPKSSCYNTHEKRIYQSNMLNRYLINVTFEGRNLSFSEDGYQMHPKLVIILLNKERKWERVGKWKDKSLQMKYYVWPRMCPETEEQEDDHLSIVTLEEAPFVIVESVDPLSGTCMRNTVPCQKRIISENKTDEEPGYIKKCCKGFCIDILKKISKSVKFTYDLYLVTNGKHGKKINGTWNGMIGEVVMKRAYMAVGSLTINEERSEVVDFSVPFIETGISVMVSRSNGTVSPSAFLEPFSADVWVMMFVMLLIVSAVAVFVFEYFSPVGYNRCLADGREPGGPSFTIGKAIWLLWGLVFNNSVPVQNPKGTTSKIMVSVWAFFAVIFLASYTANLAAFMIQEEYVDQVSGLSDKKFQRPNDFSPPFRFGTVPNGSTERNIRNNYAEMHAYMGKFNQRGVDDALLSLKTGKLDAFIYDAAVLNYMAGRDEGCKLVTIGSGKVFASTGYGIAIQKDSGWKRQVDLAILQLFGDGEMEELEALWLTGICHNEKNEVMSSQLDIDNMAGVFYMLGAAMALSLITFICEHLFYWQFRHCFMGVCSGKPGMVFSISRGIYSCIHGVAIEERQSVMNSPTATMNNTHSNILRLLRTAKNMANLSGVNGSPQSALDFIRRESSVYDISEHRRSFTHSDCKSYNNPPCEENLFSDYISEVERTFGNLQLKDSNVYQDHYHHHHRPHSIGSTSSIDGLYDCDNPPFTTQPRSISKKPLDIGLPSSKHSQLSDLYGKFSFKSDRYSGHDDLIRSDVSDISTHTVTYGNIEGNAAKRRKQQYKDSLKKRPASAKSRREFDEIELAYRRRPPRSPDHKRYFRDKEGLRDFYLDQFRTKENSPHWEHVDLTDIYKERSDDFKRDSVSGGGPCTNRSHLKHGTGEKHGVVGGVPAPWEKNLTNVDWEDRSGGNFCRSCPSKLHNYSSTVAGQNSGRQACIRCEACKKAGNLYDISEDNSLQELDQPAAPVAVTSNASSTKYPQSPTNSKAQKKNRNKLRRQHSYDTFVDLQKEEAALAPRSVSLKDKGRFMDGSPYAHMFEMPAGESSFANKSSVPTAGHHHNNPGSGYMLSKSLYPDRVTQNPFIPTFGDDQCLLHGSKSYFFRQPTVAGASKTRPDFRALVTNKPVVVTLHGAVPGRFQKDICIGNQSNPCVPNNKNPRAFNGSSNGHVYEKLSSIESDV

Take `O=C1OC(CCCN2CCN(C(=O)c3c[nH]cn3)CC2)c2ccccc21` (stereo unspecified): in [1], the Ki worked out at 13.4 nM.

In the case of `O=C1OC(CCCN2CCN(c3ccc(O)cc3)CC2)c2ccc(O)cc21` (stereo unspecified), the Ki in data set [1] stood at 6.26 nM.

For the molecule `Cc1cccc(N2CCN(CCCC3OC(=O)c4ccccc43)CC2)c1` (stereo unspecified), the affinity in data set [1], expressed as Ki, was 36.8 nM.

Turning to `Cc1ccc(C(=O)N2CCN(CCCC3OC(=O)c4ccccc43)CC2)cc1` (stereo unspecified), the Ki in [1] came to 1.34 nM.

Consider `O=C1OC(CCCN2CCN(C(=O)c3cc4cnccc4[nH]3)CC2)c2ccccc21` (stereo unspecified), for which the Ki in [1] is 32.8 nM.

In the case of `O=C1OC(CCCN2CCc3ccccc32)c2ccccc21` (stereo unspecified), the Activity in data set [2] is 24.5%; in data set [2] (filed as antagonist), 47.1%.

Take `Cc1ccc2c(c1)CN(CCCC1OC(=O)c3ccccc31)CC2` (stereo unspecified): the Activity in data set [2] was found to be 32.4%.

Take `Cc1ccccc1N1CCN(CCCC2OC(=O)c3ccccc32)CC1` (stereo unspecified): in data set [1], the affinity, expressed as Ki, was 11.3 nM.

As for `CS(=O)(=O)Nc1ccc2c(c1)C(=O)OC2CCCN1CCN(C(=O)c2ccc(C(F)(F)F)cc2)CC1` (stereo unspecified), in data set [1], the Ki amounted to 15.2 nM.

Molecule `Cc1ccc(C(=O)N2CCN(CCCC3OC(=O)c4cc(O)ccc43)CC2)cc1` (stereo unspecified) displayed a Ki in data set [1] of 36.2 nM.

In data set [1], `O=C1OC(CCCN2CCN(C(=O)c3cc4ccc(Cl)cc4[nH]3)CC2)c2ccccc21` (stereo unspecified) displayed a Ki of 16.7 nM.

In data set [1], `O=C1OC(CCCN2CCN(c3ccc([N+](=O)[O-])cc3)CC2)c2ccccc21` (stereo unspecified) yielded a Ki of 3.77 nM.

Take `O=C1OC(CCCN2CCN(C(=O)c3ccc(C(F)(F)F)cc3)CC2)c2ccc(O)cc21` (stereo unspecified): the Ki in [1] stood at 32.1 nM.

Regarding `Cc1ccc(N2CCN(CCCC3OC(=O)c4ccc(O)cc43)CC2)cc1` (stereo unspecified), in data set [1], the affinity corresponds to a Ki of 15.1 nM.

With `COc1ccccc1N1CCN(CCCC2OC(=O)c3ccccc32)CC1` (stereo unspecified), the affinity in [1] corresponds to a Ki of 8.15 nM.

Take `Cc1ccc(C(=O)N2CCN(CCCC3OC(=O)c4cc(NS(C)(=O)=O)ccc43)CC2)cc1` (stereo unspecified): affinity in data set [1] was put at a Ki of 13.2 nM.

In turn, `COc1ccc(N2CCN(CCCC3OC(=O)c4ccccc43)CC2)cc1` (stereo unspecified) showed a Ki in data set [1] of 24.3 nM.

Molecule `CS(=O)(=O)Nc1ccc2c(c1)C(=O)OC2CCCN1CCN(C(=O)c2cc3cccc(Cl)c3[nH]2)CC1` (stereo unspecified) displayed a Ki in data set [1] of 4.23 nM.

Consider `Cc1cccc2cc(C(=O)N3CCN(CCCC4OC(=O)c5ccccc54)CC3)[nH]c12` (stereo unspecified), for which the Ki in data set [1] was found to be 27.9 nM.

`O=C1OC(CCCN2CCN(C(=O)c3cc4ccccc4[nH]3)CC2)c2ccccc21` (stereo unspecified) gave a Ki in data set [1] of 7.97 nM.

Regarding `O=C1OC(CCCN2CCN(c3ccccn3)CC2)c2ccccc21` (stereo unspecified), the Activity in data set [2] (filed as antagonist) was found to be 42.2%.

Molecule `Cc1ccc(N2CCN(CCCC3OC(=O)c4ccccc43)CC2)cc1` (stereo unspecified) registered a Ki in data set [1] of 6.12 nM.

The molecule `O=C1OC(CCCN2CCN(C(=O)c3ccc(Cl)cc3)CC2)c2ccccc21` (stereo unspecified) registered an inhibitory constant (Ki) in data set [1] of 12.7 nM.

`COc1cccc(C(=O)N2CCN(CCCC3OC(=O)c4ccccc43)CC2)c1` (stereo unspecified): in [1], affinity was put at a Ki of 34.6 nM.

Regarding `O=C1OC(CCCN2CCN(C(=O)c3ccc(C(F)(F)F)cc3)CC2)c2ccccc21` (stereo unspecified), the affinity in data set [1], expressed as Ki, was 2.6 nM.

Take `O=C1OC(CCCN2CCN(C(=O)c3cc4cccc(Cl)c4[nH]3)CC2)c2cc(O)ccc21` (stereo unspecified): the “inhibition (INH)” value in data set [3] is on record as “Active”. In [1], the Ki came to 1.12 nM. In data set [4], this molecule yielded an IC50 of 183 nM.

Take `COc1cccc(N2CCN(CCCC3OC(=O)c4ccccc43)CC2)c1` (stereo unspecified): in data set [1], the Ki amounted to 30.9 nM.

The molecule `O=C1OC(CCCN2CCN(C(=O)c3ccc(F)cc3)CC2)c2ccccc21` (stereo unspecified) registered a Ki in [1] of 31.1 nM.

In the case of `COc1ccc2cc(C(=O)N3CCN(CCCC4OC(=O)c5ccccc54)CC3)[nH]c2c1` (stereo unspecified), the affinity in [1] corresponds to a Ki of 53.2 nM.

In data set [1], `COc1ccc2[nH]c(C(=O)N3CCN(CCCC4OC(=O)c5ccccc54)CC3)cc2c1` (stereo unspecified) had a Ki of 26 nM.

Take `CC(C)c1ccc(N2CCN(CCCC3OC(=O)c4ccccc43)CC2)cc1` (stereo unspecified): in [1], the Ki was 2.89 nM.

As for `O=C1OC(CCCN2CCN(C(=O)c3ccncc3)CC2)c2ccccc21` (stereo unspecified), the Ki in data set [1] was 12.1 nM.

Molecule `CS(=O)(=O)Nc1ccc2c(c1)C(=O)OC2CCCN1CCN(c2ccc(O)cc2)CC1` (stereo unspecified) showed a Ki in data set [1] of 19.6 nM.

For `O=C1OC(CCCN2CCN(c3ncccn3)CC2)c2ccccc21` (stereo unspecified), the Activity in [2] is 30.9%.

`O=C1OC(CCCN2CCN(c3ccc(Cl)cc3)CC2)c2ccccc21` (stereo unspecified): the Ki in data set [1] worked out at 25.6 nM.

Regarding `O=C1OC(CCCN2Cc3ccccc3C2)c2ccccc21` (stereo unspecified), the Activity in [2] came out at 26.7%.

Turning to `Cc1ccc(N2CCN(CCCC3OC(=O)c4cc(NS(C)(=O)=O)ccc43)CC2)cc1` (stereo unspecified), the Ki in data set [1] came out at 12.4 nM.

`O=C1OC(CCCN2CCN(C(=O)c3cc4cccnc4[nH]3)CC2)c2ccccc21` (stereo unspecified) displayed a Ki in [1] of 49.7 nM.

On to `O=C1OC(CCCN2CCN(c3nsc4ccccc34)CC2)c2ccccc21` (stereo unspecified), for which the Activity in data set [2] worked out at 15.7%.

`O=C(O)c1ccccc1C(O)CCCN1CCN(C(=O)C2Cc3cccc(Cl)c3N2)CC1` (stereo unspecified) displayed a Ki in data set [1] of 1.28 nM.

Consider `O=C1OC(CCCN2CCN(c3ccccc3F)CC2)c2ccccc21` (stereo unspecified), for which, in data set [1], the affinity, expressed as Ki, was 23.6 nM.

As for `O=C1OC(CCCN2CCN(c3ccc(O)cc3)CC2)c2ccccc21` (stereo unspecified), the Ki in data set [1] worked out at 26.8 nM.

`O=C1OC(CCCN2CCN(c3ccccc3C(F)(F)F)CC2)c2ccccc21` (stereo unspecified) came in with a Ki in [1] of 25.9 nM.

`O=C1OC(CCCN2CCN(c3ccc(C(F)(F)F)cc3)CC2)c2ccccc21` (stereo unspecified): in [1], the Ki was determined as 42.9 nM.

For `CN(C)CCCC1OC(=O)c2ccccc21` (stereo unspecified), the IC50 at 48 h in [5], in [6], in data set [7] and in data set [8] was greater than 300000 nM throughout. The molecule also registered a Ki in [1] of 114 nM. The same molecule yielded an IC50 in data set [4] greater than 10000 nM.

`NC(=O)c1coc2ccc(N3CCN(CCCC4OC(=O)c5ccccc54)CC3)cc12` (stereo unspecified) displayed an Activity in [2] (filed as antagonist) of 47.1%.

`CC(C(O)c1ccc(O)cc1)N1CCC(Cc2ccccc2)CC1` (stereo unspecified) [IFENPRODIL]: the viability at 0.1 µM in data set [9] was found to be 65.9%. Besides, in data set [10], the viability at 10 µM is 84.8%. The viability at 1 µM in the data set “cells” was determined as 77%.

Regarding `O=C1OC(CCCN2CCc3ccccc3C2c2ccccc2)c2ccccc21` (stereo unspecified), the Activity in [2] was determined as 36.4%.

As to `O=C1OC(CCCN2CCN(C(=O)c3ccccn3)CC2)c2ccccc21` (stereo unspecified), in data set [1], the inhibition constant Ki worked out at 45.1 nM.

For the molecule `O=C1OC(CCCN2CCN(c3ccccc3)CC2)c2ccccc21` (stereo unspecified), in data set [2] (filed as antagonist), the Activity amounted to 75.4%. The molecule also returned a Ki in data set [1] of 13.9 nM.

In [1], `O=C1OC(CCCN2CCN(c3ccc(F)cc3)CC2)c2ccccc21` (stereo unspecified) yielded a Ki of 9.39 nM.

`O=C1OC(CCCN2CCN(c3cccc(Cl)c3)CC2)c2ccccc21` (stereo unspecified) came in with a Ki in data set [1] of 20.8 nM.

Regarding `O=C1OC(CCCN2CCN(C(=O)c3nc4ccccc4[nH]3)CC2)c2ccccc21` (stereo unspecified), in data set [1], the affinity, expressed as Ki, was 73.4 nM.

As for `COc1ccc(C(=O)N2CCN(CCCC3OC(=O)c4ccccc43)CC2)cc1` (stereo unspecified), the affinity in [1] corresponds to a Ki of 46.7 nM.

In the case of `O=C1OC(CCCN2CCN(C(=O)c3cccnc3)CC2)c2ccccc21` (stereo unspecified), the affinity in [1], expressed as Ki, was 23.5 nM.

The molecule `O=C1OC(CCCN2CCN(C(=O)c3ccccc3)CC2)c2ccccc21` (stereo unspecified) returned a Ki in [1] of 32.8 nM.

Take `O=C1OC(CCCN2C[C@H]3C[C@@]3(c3ccc(Cl)c(Cl)c3)C2)c2ccccc21` (stereo partly specified): the Activity in data set [2] (filed as antagonist) was found to be 76%. The molecule further returned a Ki in data set [1] of 33.6 nM.

In data set [1], `O=C1OC(CCCN2CCN(C(=O)c3cc4ccncc4[nH]3)CC2)c2ccccc21` (stereo unspecified) registered a Ki of 25.4 nM.

In data set [2], `O=C1OC(CCCN2CCN(c3csc4ccccc34)CC2)c2ccccc21` (stereo unspecified) showed an Activity of 36.6%.

In the case of `O=C1OC(CCCN2CCc3ccccc3C2)c2ccccc21` (stereo unspecified), in data set [2], the Activity is 22.2%.

As to `O=C1OC(CCCN2CCN(C(=O)c3ccc(C(F)(F)F)cc3)CC2)c2cc(O)ccc21` (stereo unspecified), the Ki in [1] is 8.22 nM.

In the case of `O=C1OC(CCCN2CCN(C(=O)c3cc[nH]c3)CC2)c2ccccc21` (stereo unspecified), the Ki in data set [1] was 13 nM.

In the case of `Cc1ccc(N2CCN(CCCC3OC(=O)c4ccccc43)CC2)cc1C` (stereo unspecified), in data set [1], the affinity, expressed as Ki, was 29.2 nM.

On to `O=C1OC(CCCN2CCN(c3ccc(Br)cc3)CC2)c2ccccc21` (stereo unspecified), for which the Ki in data set [1] was 26.5 nM.

A word on the Ki: it is a dissociation constant, usually derived from enzyme kinetics or from competition with a known ligand. Usually IC50 stands for the concentration that inhibits the measured activity by half.
